Results reported in patent US20210355104A1, “ADENOSINE RECEPTOR BINDING COMPOUNDS” (Nikang Therapeuticsm Inc., priority 2018, published 2021).
“And” between values parts separate entries of the source, which are not always exact repeats. Equal entries are not always repeated.

Columns and labels:
[1] = molecular target: T1, Adenosine A2A receptor (Homo sapiens, UniProt P29274); test: Adenosine A2A receptor competitive binding assay (Tag-lite HTRF); conditions: Tag-lite adenosine A2A receptor ligand binding, 2 h room temperature; values separated by / are repeat determinations
T1 sequence (P29274 whole entry): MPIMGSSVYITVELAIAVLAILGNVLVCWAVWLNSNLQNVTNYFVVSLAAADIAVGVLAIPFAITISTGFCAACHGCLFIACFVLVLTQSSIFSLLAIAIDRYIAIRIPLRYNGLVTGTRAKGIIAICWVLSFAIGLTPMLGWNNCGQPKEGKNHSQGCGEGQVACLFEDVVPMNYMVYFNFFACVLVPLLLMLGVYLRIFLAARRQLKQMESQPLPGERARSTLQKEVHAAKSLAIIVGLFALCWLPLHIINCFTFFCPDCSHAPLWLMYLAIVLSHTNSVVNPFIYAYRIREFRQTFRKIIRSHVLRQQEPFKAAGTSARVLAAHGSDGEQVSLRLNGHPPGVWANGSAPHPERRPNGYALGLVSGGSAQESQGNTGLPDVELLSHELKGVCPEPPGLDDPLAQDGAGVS
Method in brief: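 Compound displacement of a red fluorescent antagonist tracer (added at 60 nM stock) from donor-labelled, pre-transfected human A2A cells was read by HTRF after 2 h at room temperature; compound dilutions contained 0.6% DMSO.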

[2] = molecular target: T1, Adenosine A2A receptor; test: cAMP assay in 293A cells stably expressing the adenosine A2A receptor (CGS21680 stimulation, HTRF); format: cell-based; design: expressed in transfected cells; host or cells: 293A cells (Invitrogen, Cat# R705-07) infected with A2A-expressing lentivirus (custom packaged by Biosettia), puromycin selected; conditions: 293A-A2AR cells, 0.1% BSA, values separated by / are repeat determinations
[3] = 1 uM CGS, read-out: cAMP (nM) 0.1% BSA, 1 uM CGS
[4] = 8 nM CGS, read-out: cAMP (nM) 0.1% BSA, 8 nM CGS

| IC50 [1] | IC50 [2, 3] | IC50 [2, 4] | Structure (SMILES) |
| --- | --- | --- | --- |
| 0.0036 µM and 0.001 µM and 0.004 µM | 513 nM and 315 nM and 231 nM and 229 nM and 143 nM | – | Cc1cc(-c2c(OCCC(C)(C)C(=O)O)nc(N)nc2-c2ccc(F)cc2)cc(C(F)F)n1 [Example 70, 4-((2-amino-5-(2-(difluoromethyl)-6-methylpyridin-4-yl)-6-(4-fluorophenyl)pyrimidin-4-yl)oxy)-2,2-dimethylbutanoic acid] |
| > 1 µM | – | > 1000 nM | Cc1cc(-c2c(OCC(=O)O)nc(N)nc2-c2ccc(F)cc2)cc(C(F)F)n1 [Example 71, 2-((2-amino-5-(2-(difluoromethyl)-6-methylpyridin-4-yl)-6-(4-fluorophenyl)pyrimidin-4-yl)oxy)acetic acid] |
| 0.025 µM | – | 3.6 nM | Cc1cc(-c2c(O[C@H](C)CO)nc(N)nc2-c2ccc(F)cc2)cc(C(F)F)n1 [Example 73, (R)-2-((2-amino-5-(2-(difluoromethyl)-6-methylpyridin-4-yl)-6-(4-fluorophenyl)pyrimidin-4-yl)oxy)propan-1-ol] |
| 0.0084 µM and 0.0157 µM | 693 nM | – | Cc1cc(-c2c(OC[C@@H](C)O)nc(N)nc2-c2ccc(F)cc2)cc(C(F)F)n1 [Example 74, (R)-1-((2-amino-5-(2-(difluoromethyl)-6-methylpyridin-4-yl)-6-(4-fluorophenyl)pyrimidin-4-yl)oxy)propan-2-ol] |
| 0.201 µM | – | 89 nM | Cc1cc(-c2c(OCC3CNC3)nc(N)nc2-c2ccc(F)cc2)cc(C(F)F)n1 [Example 75, 4-(azetidin-3-ylmethoxy)-5-(2-(difluoromethyl)-6-methylpyridin-4-yl)-6-(4-fluorophenyl)pyrimidin-2-amine] |
| 0.019 µM | – | 3.2 nM | Cc1cc(-c2c(O[C@@H](C)CO)nc(N)nc2-c2ccc(F)cc2)cc(C(F)F)n1 [Example 76, (S)-2-((2-amino-5-(2-(difluoromethyl)-6-methylpyridin-4-yl)-6-(4-fluorophenyl)pyrimidin-4-yl)oxy)propan-1-ol] |
| 0.0039 µM and 0.0042 µM | 547 nM | – | Cc1cc(-c2c(OC[C@H](C)O)nc(N)nc2-c2ccc(F)cc2)cc(C(F)F)n1 [Example 77, (S)-1-((2-amino-5-(2-(difluoromethyl)-6-methylpyridin-4-yl)-6-(4-fluorophenyl)pyrimidin-4-yl)oxy)propan-2-ol] |
| 0.011 µM | – | 51 nM | Cc1cc(-c2c(CNC(=O)N(C)C)nc(N)nc2-c2ccc(F)cc2)cc(C(F)F)n1 [Example 78, 3-((2-amino-5-(2-(difluoromethyl)-6-methylpyridin-4-yl)-6-(4-fluorophenyl)pyrimidin-4-yl)methyl)-1,1-dimethylurea] |
| 0.042 µM | – | 6.4 nM | Cc1cc(-c2c(OCCCN3CCOCC3)nc(N)nc2-c2ccc(F)cc2)cc(C(F)F)n1 [Example 80, 5-(2-(difluoromethyl)-6-methylpyridin-4-yl)-4-(4-fluorophenyl)-6-(3-morpholinopropoxy)pyrimidin-2-amine] |
| 0.0056 µM | – | 21 nM and 5.9 nM and 8.4 nM | Cc1cc(-c2c(OCC(O)CCO)nc(N)nc2-c2ccc(F)cc2)cc(C(F)F)n1 (stereo not drawn) [Example 81, 4-((2-amino-5-(2-(difluoromethyl)-6-methylpyridin-4-yl)-6-(4-fluorophenyl)pyrimidin-4-yl)oxy)butane-1,3-diol] |
| 0.016 µM | 936 nM | 1.6 nM | Cc1cc(-c2c(OCCNc3ccccc3)nc(N)nc2-c2ccc(F)cc2)cc(C(F)F)n1 [Example 82, 5-(2-(difluoromethyl)-6-methylpyridin-4-yl)-4-(4-fluorophenyl)-6-(2-(phenylamino)ethoxy)pyrimidin-2-amine] |
| 0.013 µM | 1610 nM | 2.9 nM and 7.3 nM and 22 nM | Cc1cc(-c2c(OC[C@@H](O)CO)nc(N)nc2-c2ccc(F)cc2)cc(C(F)F)n1 [Example 83, (S)-3-((2-amino-5-(2-(difluoromethyl)-6-methylpyridin-4-yl)-6-(4-fluorophenyl)pyrimidin-4-yl)oxy)propane-1,2-diol] |
| 0.017 µM | – | 8.7 nM | Cc1cc(-c2c(OCC(=O)NCc3ccccc3)nc(N)nc2-c2ccc(F)cc2)cc(C(F)F)n1 [Example 84] |
| 0.013 µM | 1070 nM | 2 nM and 9.1 nM and 10.5 nM | Cc1cc(-c2c(OC[C@H](O)CO)nc(N)nc2-c2ccc(F)cc2)cc(C(F)F)n1 [Example 86, (R)-3-((2-amino-5-(2-(difluoromethyl)-6-methylpyridin-4-yl)-6-(4-fluorophenyl)pyrimidin-4-yl)oxy)propane-1,2-diol] |
| 0.018 µM | – | 2.2 nM | Cc1cc(-c2c(OCCN(C)c3ccccc3)nc(N)nc2-c2ccc(F)cc2)cc(C(F)F)n1 [Example 87, 5-(2-(difluoromethyl)-6-methylpyridin-4-yl)-4-(4-fluorophenyl)-6-(2-(methyl(phenyl)amino)ethoxy)pyrimidin-2-amine] |
| 0.022 µM | 4260 nM | 8.3 nM | Cc1cc(-c2c(OCC(=O)N(CCO)CCO)nc(N)nc2-c2ccc(F)cc2)cc(C(F)F)n1 [Example 88] |
| 0.0061 µM | – | 2.2 nM | CCN(CCO)C(=O)COc1nc(N)nc(-c2ccc(F)cc2)c1-c1cc(C)nc(C(F)F)c1 [Example 89, 2-((2-amino-5-(2-(difluoromethyl)-6-methylpyridin-4-yl)-6-(4-fluorophenyl)pyrimidin-4-yl)oxy)-N-ethyl-N-(2-hydroxyethyl)acetamide] |
| 0.023 µM | – | 6.8 nM | CCN(C(=O)COc1nc(N)nc(-c2ccc(F)cc2)c1-c1cc(C)nc(C(F)F)c1)c1ccccc1 [Example 90] |
| 0.048 µM | – | 6.4 nM | Cc1cc(-c2c(OCC(=O)Nc3ccccc3)nc(N)nc2-c2ccc(F)cc2)cc(C(F)F)n1 [Example 92, 2-((2-amino-5-(2-(difluoromethyl)-6-methylpyridin-4-yl)-6-(4-fluorophenyl)pyrimidin-4-yl)oxy)-N-phenylacetamide] |
| 0.0024 µM | – | 0.39 nM and 2.9 nM | Cc1cc(-c2c(OCCNc3ccccn3)nc(N)nc2-c2ccc(F)cc2)cc(C(F)F)n1 [Example 94, 5-(2-(difluoromethyl)-6-methylpyridin-4-yl)-4-(4-fluorophenyl)-6-(2-(pyridin-2-ylamino)ethoxy)pyrimidin-2-amine] |
| 0.014 µM | 3310 nM | 4.5 nM | Cc1cc(-c2c(OCc3nc(C)n[nH]3)nc(N)nc2-c2ccc(F)cc2)cc(C(F)F)n1 [Example 97, 5-(2-(difluoromethyl)-6-methylpyridin-4-yl)-4-(4-fluorophenyl)-6-((3-methyl-1H-1,2,4-triazol-5-yl)methoxy)pyrimidin-2-amine] |
| 0.0059 µM | – | 1.2 nM | Cc1cc(-c2c(OCC(=O)N(C)c3ccccc3)nc(N)nc2-c2ccc(F)cc2)cc(C(F)F)n1 [Example 98, 2-((2-amino-5-(2-(difluoromethyl)-6-methylpyridin-4-yl)-6-(4-fluorophenyl)pyrimidin-4-yl)oxy)-N-methyl-N-phenylacetamide] |
| 0.00083 µM | 10 nM | – | Cc1cc(-c2c(OCC3(F)CCOCC3)nc(N)nc2-c2ccc(F)cc2)cc(C(F)F)n1 [Example 102, 5-(2-(difluoromethyl)-6-methylpyridin-4-yl)-4-(4-fluorophenyl)-6-((4-fluorotetrahydro-2H-pyran-4-yl)methoxy)pyrimidin-2-amine] |
